Columns and labels:
Type in all cases: physicochemical
[1] = Magnesium retention in soy milk on standing (Mg content in upper layer); conditions: for Mg content: 1 liter, after addition during agitation (initial); for Mg content in upper layer: after retention of two days without agitation
Protocol: 3 g of material obtained in Example 1 were added to 1 liter of Soy milk during agitation.
3 g of material obtained in Example 2 were added to 1 liter of Soy milk during agitation.
Potassium magnesium citrate was prepared according to U.S. Pat. No. 4,985,593. 5.6 g Of the prepared material were added to 1 liter of soy milk and the samples stored refrigerated.
2.2 g of Tri magnesium citrate nona hydrate were added to 1 liter of soy milk during the agitation.
2.2 g of Tri magnesium citrate nona hydrate and 0.2 g of Kappa Carragenan were added to 1 liter of soy milk during the agitation.
2.2 g of Tri magnesium citrate nona hydrate and 2.2 g of tri potassium citrate were added to 1 liter of soy milk during the agitation.

[2] = Magnesium retention in cow milk on standing (Mg content in upper layer)
Protocol: 3 g of material obtained in Example 1 were added to 1 liter of cow milk during agitation.

[3] = Long-term magnesium retention in UHT-treated soy milk, stored refrigerated (Mg content in upper level)
Protocol: 120 g of material obtained in Example 1 were added to 40 liters of soy milk, after agitation the mixture passed the well known (in the art) UHT treatment and samples were collected and stored refrigerated.

Molecule: O=C([O-])CC(O)(CC(=O)[O-])C(=O)[O-].O=C([O-])CC(O)(CC(=O)[O-])C(=O)[O-].[K+].[K+].[K+].[K+].[Mg+2] [Potassium magnesium citrate]
- initial concentration of Mg ([1]; 5.6 g per 1 liter): 373 mg/L
- Mg content in the upper level ([1]; stored refrigerated, after 48 hours of retention): 372 mg/L

Molecule: Magnesium Potassium Citrate [Example 2]
- Mg content [1]: 547 mg/L
- Mg content in upper layer [1]: 545 mg/L

Molecule: Magnesium Potassium Citrate [Example 1]
- Mg content [1]: 445 mg/L
- Mg content in upper layer [1]: 444 mg/L
- Mg content ([2]; 1 liter, after addition during agitation (initial)): 297 mg/L
- Mg content in upper layer ([2]; after retention of two days without agitation): 289 mg/L
- Mg content in the upper level ([3]; after 1 week): 471 mg/L
- Mg content in the upper level ([3]; after 2 weeks): 470 mg/L
- Mg content in the upper level ([3]; after 3 weeks): 471 mg/L
- Mg content in the upper level ([3]; after 4 weeks): 470 mg/L
- Mg content in the upper level ([3]; after 5 weeks): 462 mg/L
- Mg content in the upper level ([3]; after 6 weeks): 468 mg/L
- Mg content in the upper level ([3]; after 7 weeks): 470 mg/L
- Mg content in the upper level ([3]; after 8 weeks): 468 mg/L
- Mg content in the upper level ([3]; after 9 weeks): 467 mg/L
- Mg content in the upper level ([3]; after 10 weeks): 465 mg/L
- Mg content in the upper level ([3]; after 11 weeks): 471 mg/L
- Mg content in the upper level ([3]; after 12 weeks): 465 mg/L
- Mg content in the upper level ([3]; after 13 weeks): 466 mg/L
- Mg content in the upper level ([3]; initial): 468 mg/L

Molecule: O.O.O.O.O.O.O.O.O.O=C([O-])CC(O)(CC(=O)[O-])C(=O)[O-].O=C([O-])CC(O)(CC(=O)[O-])C(=O)[O-].[Mg+2].[Mg+2].[Mg+2] [Tri magnesium citrate nona hydrate]
- Mg content [1]: 475 mg/L
- Mg content in upper layer [1]: 307 mg/L
- Magnesium sediment during two days ([1]; two days without agitation): 35 percents
